{"source": "patent US20080051379A1", "about": "“Compositions and Methods for the Treatment of Peripheral B-Cell Neoplasms” (Trustees of Boston University, priority 2004, published 2008)", "format_in_all_cases": "cell-based, human", "key": {"CD3+ CD4+ Sezary cells": {"system": "CD3+ CD4+ Sezary cells", "assay": "Hoechst 33342 apoptosis assay, Sezary cells", "conditions": "10 μM rolipram or 1 μM hydrocortisone; one patient", "experimental": "Magnetic bead purified peripheral blood T cells or leukemic cells from patients with B-CLL or Sezary syndrome were cultured in media alone or with a dose titration of hydrocortisone (solid line), followed by assessment for apoptosis by Hoechst 33342 FACS analysis at 48 hours. Using the same experimental conditions, the effect of addition of 10 μM rolipram (thick dashed line) or 10 μM rolipram and 40 μM forskolin (dotted line) was also assessed. The SEM of triplicate samples is shown; where not visible, the SEM was less than 1.0%.\nCCRF-CEM cells were obtained from ATCC^27. Leukemic or normal mononuclear cells were obtained by centrifugation over Histopaque 1077 (Sigma Chemical Company, St. Louis, Mo.). For purification of T cells, whole mononuclear cells from normal subjects were incubated with magnetic beads coated with appropriate antibodies, then positively purified using a magnet (Miltenyi). […]\nHoechst 33342 and DiOC6(3) apoptosis assays were performed as previously described^22,28. […] The absorbance (O.D.) of the formazan product was determined at 492 nm using a plate reader (Titertek Multiscan Plus, Labsystems). Percent cell viability was calculated as follows: (O.D. control sample−O.D. blank)/(O.D. test sample−O.D. blank)×100. […]"}, "[1]": {"system": "GRE luciferase construct in CCRF-CEM cells", "assay": "GRE luciferase transactivation in CCRF-CEM cells", "conditions": "40 μM forskolin or 10 μM rolipram", "experimental": "B-CLL cells (FIG. 3A) or CCRF-CEM cells (FIG. 3B) were transiently transfected with a luciferase construct in which expression is regulated by GRE elements, followed by culture in 10 μM rolipram (R), 40 μM forskolin (Fsk), 1 μM hydrocortisone (HC), 1 mM Rp-8Br-cAMPS (Rp-8Br) or combinations of these agents. 12 hours after addition of the drugs, the relative luminescence of the samples was determined. The data shown are the mean of 8 experiments for B-CLL and two experiments for CCRF-CEM cells. The single asterisk denote a significant difference by paired student's t test between HC alone and either R/HC (FIG. 3A) or F/HC (FIG. 3B) (p<0.02). The double asterisk denotes a significant difference between Rp-8Br-cAMPS/HC and HC alone (p<0.02).\nAn MMTV GRE luciferase construct, originally created by Dr. R. Evans, was a gift from Dr. Remco Spanjaard (Dept. of Otolaryngology, Boston Medical Center)^29. […] Triplicate samples were analyzed with an MGM Instruments Optocomp I luminometer (Hamden, Conn.). Analysis of cell viability (trypan blue exclusion) and total protein (Pierce) verified that equivalent numbers of viable B-CLL cells were analyzed. 100 million CCRF-CEM cells were similarly transfected, cultured and analyzed except that Nucleofector program O17 was utilized. […] Data were analyzed using a two-sided paired t test for means."}, "B-CLL cells": {"system": "B-CLL cells", "assay": "Hoechst 33342 apoptosis assay, B-CLL cells", "conditions": "for apoptosis by Hoechst 33342 analysis: 48 hrs culture, Roli 10 μM, HC 1 μM", "experimental": "FIGS. 1A-D show the effects of the cyclic nucleotide phosphodiesterase inhibitors rolipram, RO20-1724 and cilostamide on hydrocortisone and dexamethasone-induced apoptosis in B-CLL. In FIG. 1A, leukemic cells from 11 B-CLL patients were assessed for apoptosis by […] analysis after 48 hrs culture in media alone (No treatment), 10 μM rolipram (Roli), 1 μM hydrocortisone (HC) or a combination of the two drugs (Roli+HC). In FIGS. 1B and 1C, leukemic cells from five patients with B-CLL were cultured in media alone or with a dose titration of hydrocortisone (1B: solid line) or dexamethasone (1C: solid line), followed by assessment for apoptosis by Hoechst 33342 FACS analysis at 48 hours. Using the same experimental conditions, the effect of addition of 10 μM rolipram (thick dashed line) to the glucocorticoids was also assessed. In FIG. 1D, the apoptotic effects of the PDE4 inhibitor RO20-1724 (RO20) (10 μM) or the PDE3 inhibitor cilostamide (Cilost) (10 μM) were assessed on B-CLL cells when combined with 1 μM hydrocortisone. Data represent the mean±SEM of triplicate samples.\nBlood samples were obtained by IRB-approved consent from flow cytometry-confirmed B-CLL patients that were either untreated or for whom at least one month had elapsed since chemotherapy. Patients with active infections or other serious medical conditions were not included in this study.\nCCRF-CEM cells were obtained from ATCC^27. Leukemic or normal mononuclear cells were obtained by centrifugation over Histopaque 1077 (Sigma Chemical Company, St. Louis, Mo.). For purification of T cells, whole mononuclear cells from normal subjects were incubated with magnetic beads coated with appropriate antibodies, then positively purified using a magnet (Miltenyi). Cells were cultured in RPMI 1640 media (Biowhittaker, Walkersville, Md.) supplemented with 10% fetal calf serum, 50 μMol/L 2-mercaptoethanol, 2 mMol/L L-glutamine, 10 mM Hepes pH 7.4, […] (Sigma Chemical Company, St. Louis, Mo.). For isolation of glucocorticoid resistant clones, parental CCRF-CEM cells were treated with 1 μM dexamethasone for 10 days, and surviving cells diluted to ≦one cell/well in a 96-well flat-bottom tissue culture plate, grown for three weeks in media supplemented with 20% fetal calf serum and 1% insulin-transferrin-selenium (GIBCO), and then transferred to regular growth medium. […] For isolation of glucocorticoid-sensitive clones, the same procedure was used, except that treatment with dexamethasone was omitted. A glucocorticoid-sensitive subclone (CEM-S2) was inhibited in its survival by dexamethasone with an IC50=0.007 μM.\nHoechst 33342 and DiOC6(3) apoptosis assays were performed as previously described^22,28. For CCRF-CEM cell survival assays, cells were plated at a density of 3×10^4/well in 96-well flat-bottom plates in the presence of test reagents or vehicle in 0.1 mL media. Following incubation for 72 hrs, 20 μl of a 20:1 MTS (2 mg/mL)/PMS (0.92 mg/ml) solution was added to each well, and the plates incubated for 2 hrs at 37°. The absorbance (O.D.) of the formazan product was determined at 492 nm using a plate reader (Titertek Multiscan Plus, Labsystems). Percent cell viability was calculated as follows: (O.D. control sample−O.D. blank)/(O.D. test sample−O.D. blank)×100. All assays were performed in triplicate."}}, "data": [{"compound": "COc1ccc(C2CNC(=O)C2)cc1OC1CCCC1", "note": "(stereo not drawn) [rolipram, 4-(3-cyclopentyloxy-4-methoxyphenyl)-2-pyrrolidone]", "values": [{"measurement": "apoptotic effect used separately on Sezary leukemic cells", "setting": "CD3+ CD4+ Sezary cells", "value": "little effect"}, {"measurement": "GRE transactivation as a single agent", "setting": "[1]", "value": "none"}, {"measurement": "B-CLL apoptosis, rolipram added to dexamethasone", "setting": "B-CLL cells; 10 μM rolipram + dexamethasone dose titration, 48 hours", "value": "augmented B-CLL apoptosis beyond the levels observed with either agent alone"}, {"measurement": "apoptosis by Hoechst 33342 analysis", "setting": "B-CLL cells; B-CLL patient #1, No Rx 10", "value": 17, "unit": "%"}, {"measurement": "apoptosis by Hoechst 33342 analysis", "setting": "B-CLL cells; B-CLL patient #2, No Rx 11", "value": 13, "unit": "%"}, {"measurement": "apoptosis by Hoechst 33342 analysis", "setting": "B-CLL cells; B-CLL patient #3, No Rx 13", "value": 24, "unit": "%"}, {"measurement": "apoptosis by Hoechst 33342 analysis", "setting": "B-CLL cells; B-CLL patient #4, No Rx 23", "value": 34, "unit": "%"}, {"measurement": "apoptosis by Hoechst 33342 analysis", "setting": "B-CLL cells; B-CLL patient #5, No Rx 25", "value": 37, "unit": "%"}, {"measurement": "apoptosis by Hoechst 33342 analysis", "setting": "B-CLL cells; B-CLL patient #6, No Rx 27", "value": 45, "unit": "%"}, {"measurement": "apoptosis by Hoechst 33342 analysis", "setting": "B-CLL cells; B-CLL patient #7, No Rx 31", "value": 67, "unit": "%"}, {"measurement": "apoptosis by Hoechst 33342 analysis", "setting": "B-CLL cells; B-CLL patient #8, No Rx 33", "value": 62, "unit": "%"}, {"measurement": "apoptosis by Hoechst 33342 analysis", "setting": "B-CLL cells; B-CLL patient #9, No Rx 35", "value": 81, "unit": "%"}, {"measurement": "apoptosis by Hoechst 33342 analysis", "setting": "B-CLL cells; B-CLL patient #10, No Rx 44", "value": 58, "unit": "%"}, {"measurement": "apoptosis by Hoechst 33342 analysis", "setting": "B-CLL cells; B-CLL patient #11, No Rx 61", "value": 75, "unit": "%"}, {"measurement": "augmentation of induction of apoptosis relative to the increment induced with 100 μM hydrocortisone alone", "setting": "B-CLL cells; addition of 10 μM rolipram to 100 μM hydrocortisone, five patients", "value": "40±18", "unit": "%"}]}]}
